These results are taken from US20220380402A1, “6-HYDRAZINOADENOSINE COMPOUNDS WITH A2A ADENOSINE RECEPTOR AGONIST ACTIVITY” (ACADEMY OF MILITARY MEDICAL SCIENCES, priority 2019, published 2022).

Structures are written as SMILES.

The subject of one series is blood-brain barrier. Briefly: Animal experiment of blood-brain barrier opening (FITC-Dextran in brain of SD rats). Format: in vivo. Here is the method: Fluorescein-labeled dextran FITC-Dextran (CAS: 60842-46-8) with a molecular weight of 10,000 MW was purchased from […] (Shanghai) Chemical Industry Development Co., Ltd.; PBS solution and experimental animal SD rats were obtained from commercial sources. FITC-Dextran solution was prepared with PBS to obtain six concentration gradients (0.001, 0.01, 0.1, 1, 0.5, 10 μg/ml), and a FITC-Dextran concentration standard curve was prepared by using microplate reader (λex=490 nm, λem=520 nm); 10 mg/ml FITC-Dextran solution was separately prepared, Compound 5 was added to PBS solution to make 1 mg/ml solution, 1 ml of 10 mg/ml FITC-Dextran solution and 1 ml of 1 mg/ml Compound 5 PBS solution were taken to make an administration solution; 1 ml of 10 mg/ml FITC-Dextran solution and 1 ml of PBS solution taken to make a blank control solution; 6 SD rats were injected with 2 ml of the administration solution respectively in the tail vein, while another 6 SD rats were injected with 2 ml of the blank control solution in the tail vein; after 30 minutes, the brain tissues of all SD rats were taken out, homogenized and centrifuged at 10,000 rpm for 15 minutes, and the supernatants were taken for testing; and a microplate reader (λex=490 nm, λem=520 nm) was used for the fluorescence detection of the solutions to be tested. […]

For a further series, the target named is T1, A2A adenosine receptor (Homo sapiens, UniProt P29274).
T1 construct: purchased PerkinElmer Research Products (Boston, Mass.); host or cells: HEK-293 cells, stably transfected; membrane preparation
The series can be described thus: Radioligand binding test ([3H]CGS21680 displacement, hA2A HEK-293 cell membrane). The note with it: calculated from IC50 by Cheng and Prusoff equation; [3H]CGS21680 25 nM, Km 22 nM; 25° C., 90 minutes. As to the method:
[3H]CGS21680 (2-[p-(2-carboxyethyl)phenylethylamino]-5′-N-ethylformamidoadenosine, [carboxy-1-ethyl-3H(N)]; 250 μCi) was purchased from PerkinElmer Research Products (Boston, Mass.).
Cell membrane stably transfected with (human) A2A adenosine receptor was prepared in HEK-293 cells. The cell membrane was obtained from PerkinElmer Research Products (Boston, Mass.).
CGS21680 (2-[p-(2-carboxyethyl)phenylethylamino]-5′-N-ethylformamidoadenosine) was purchased from Selleck (Shanghai, CN).
The A2A adenosine receptors used were all expressed in the cell membrane. […] The specific binding percentage of [3H]CGS21680 was calculated according to the CPM value, % specific binding of [3H]CGS21680=(CPMsample−CPMLow Control)/(CPMHigh Control−CPMLow Control)*100, in which
High Control was 0.5% DMSO, Low Control was 100 μM CGS21680. The IC50 value was calculated based on the compound concentration and the specific binding percentage of [3H]CGS21680 by curve fitting.
The inhibition constant (Ki) value was calculated from the IC50 value according to the Cheng and Prusoff equation, Ki=IC50/(1+[S]/Km), in which [S] was the concentration of the radioligand (25 nM), and Km was the human A2AAR dissociation constant (22 nM) of [3H]CGS21680. The inhibition constant Ki values for Compounds 1 to 20 of the present invention binding to A2A adenosine receptor were shown in Table 1.

Series [1] addresses human adenosine receptor A2A (Homo sapiens, UniProt P29274). The series can be described thus: Adenosine receptor A2A cAMP test (LANCE Ultra cAMP, hADORA2A-HEK293 cells). Format: cell-based. The settings on record: for hA2AAR agonist function (in words): conclusion from cAMP test; for EC50: hADORA2A-HEK293 cells, 300 cells/well, stimulation of cyclic adenosine monophosphate. From the text: Experimental reagents and consumables: DMEM/F12, G418, Penicillin-Streptomycin, Versene Solution, HEPES, Hank's Buffered Saline Solution, PBS (pH 7.4, 1×, sterile), FBS, BSA Stabilizer 7.5%, Rolipram, NECA, were purchased from Gibico, Hyclone and Sigma, respectively. LANCE® Ultra cAMP kit (Eu-cAMP tracer, Ulight-anti-cAMP reagent, cAMP detection buffer) and hADORA2A-HEK293 cells were purchased from PerkinElmer Research Products (Boston, Mass.). All other reagents were of analytical grade and obtained from commercial sources. 384-well polypropylene microplate and 384-well white solid plate were purchased from Labcyte and Corning, respectively.
Cells stably expressing human adenosine receptor A2A (hADORA2A-HEK293 cells) were cultured in DMEM/F12 medium containing 10% FBS, 1× Penicillin-Streptomycin and 400 μg/ml G418 in a 37° C., 5% CO2 environment. Before the experiment, the cells were digested with Versene solution, and the cells were collected by centrifugation at 200 g at room temperature for 5 minutes, and finally resuspended with detection buffer (Hank's buffered saline solution, containing 5 mM HEPES, 0.1% BSA stabilizer and 10 μM Rolipram, pH 7.4). TECAN automated pipetting workstation was used to prepare a compound source plate by 3-fold diluting the compound in a 384-well polypropylene microplate with DMSO to form 11 concentration points, in which the 11 concentration points of the compound were 10 mM, 3.33 mM, 1.11 mM, 0.37 mM, 0.12 mM, 0.041 mM, 0.013 mM, 4.57×10^−3 mM, 1.52×10^−3 mM, 5×10^−4 mM and 1.7×10^−4 mM, respectively. Echo ultrasonic pipetting system (Labcyte) was used to transfer the test compound from the compound source plate to the detection plate, in which the volume of the compound transferred was 10 nl/well. The hADORA2A-HEK293 cell suspension was diluted with detection buffer to 30,000 cells/ml, and the cell suspension was transferred to the detection plate at a volume of 10 μl/well (300 cells/well). The detection plate was centrifuged at 150 g for 1 minute and pre-incubated at room temperature for 30 minutes. […] EnVison microplate reader (EnVision multimode plate reader, PerkinElmer) was used to test the level of cyclic adenosine monophosphate in the final solution (λex=320 nm, λem=665 nm & 615 nm). The EC50 (nM) value of the compound interacting with A2A adenosine receptor to stimulate the production of a level of cyclic adenosine monophosphate was calculated. The compound A2A receptor agonist titer was expressed as the EC50 (nM) value of the compound interacting with the A2A adenosine receptor to stimulate the production of a level of cyclic adenosine monophosphate.

T1 sequence (P29274 whole entry): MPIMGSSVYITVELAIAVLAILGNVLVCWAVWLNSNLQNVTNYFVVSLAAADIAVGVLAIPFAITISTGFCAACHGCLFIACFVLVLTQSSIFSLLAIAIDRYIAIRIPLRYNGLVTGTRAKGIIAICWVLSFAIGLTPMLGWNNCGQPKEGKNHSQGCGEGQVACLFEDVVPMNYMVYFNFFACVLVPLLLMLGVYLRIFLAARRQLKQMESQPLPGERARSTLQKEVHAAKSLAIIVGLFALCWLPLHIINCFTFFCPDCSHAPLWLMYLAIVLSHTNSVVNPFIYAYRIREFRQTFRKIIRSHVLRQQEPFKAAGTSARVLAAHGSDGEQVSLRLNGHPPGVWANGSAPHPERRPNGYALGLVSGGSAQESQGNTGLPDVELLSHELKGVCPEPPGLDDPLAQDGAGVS
Chain of human adenosine receptor A2A (P29274 whole entry): as above

For orientation: melting point means the temperature of the solid-liquid transition. For orientation: Ki means the equilibrium dissociation constant of an inhibitor or competing ligand from its target. `OC[C@H]1O[C@@H](n2cnc3c(N/N=C/c4ccc(-c5ccc(Br)cc5)o4)ncnc32)[C@H](O)[C@@H]1O` [Compound 5, (2R,3R,4S,5R)-2-{6-{2-{(E)-[5-(4-bromophenyl)furan-2-yl]methylene}hydrazino}-9H-purin-9-yl}-5-(hydroxymethyl)tetrahydrofuran-3,4-diol] registered a melting point of 162 °C. In the series with blood-brain barrier (SD rats, FITC-Dextran co-administered by tail vein, 30 minutes), the “Opening of the blood-brain barrier (in words)” value was “could open the blood-brain barrier”. On A2A adenosine receptor, the inhibition constant (Ki) is 353 nM.
One may read the EC50 as the midpoint of the concentration-response curve. `OC[C@H]1O[C@@H](n2cnc3c(N/N=C/c4ccc(OCc5ccc(F)cc5)cc4)ncnc32)[C@H](O)[C@@H]1O` [Compound 7, (2R,3R,4S,5R)-2-{6-{2-{(E)-4-[(4-fluorobenzyl)oxy]benzylidene}hydrazino}9H-purin-9-yl}-5-(hydroxymethyl)tetrahydrofuran-3,4-diol]: the melting point is 206 °C. Also, the “FITC-Dextran concentration in the brain of SD rats” value in the series on blood-brain barrier (tail vein injection of 2 ml (10 mg/ml FITC-Dextran 10,000 MW + 1 mg/ml compound in PBS, 1:1), brain homogenate supernatant after 30 minutes, average of 6 rats, blank control 0.021) amounted to 0.057 µg/mL. For the same compound, on A2A adenosine receptor, the Ki was 13.8 nM. In series [1], the “hA2AAR agonist function (in words)” value is reported as “hA2AAR agonists” and the response was half-maximal at 18.6 nM (EC50).
In turn, `OC[C@H]1O[C@@H](n2cnc3c(N/N=C/c4cncs4)ncnc32)[C@H](O)[C@@H]1O` [Compound 16, (2R,3S,4R,5R)-2-(hydroxymethyl)-5-{6-{2-[(E)-thiazol-5-yl-methylene]hydrazino}-9H-purin-9-yl}tetrahydrofuran-3,4-diol] showed a melting point of 224 °C. For the same compound, at A2A adenosine receptor, the Ki was 15.8 nM. Moreover, in series [1], the “hA2AAR agonist function (in words)” value is reported as “hA2AAR agonists” and the EC50 worked out at 43.5 nM.
